Strand notation (5' to 3'): a small letter for the sugar, then the base; units joined by * are phosphorothioate-linked, units joined directly phosphodiester-linked; [ ] holds rarer units or linkages, { } end groups; capitals alone tell only the bases. [ms] = mesyl phosphoramidate linkage; e = 2'-O-(2-methoxyethyl) (MOE); k = constrained ethyl (cEt); [5mC] = 5-methylcytosine; d = 2'-deoxy (DNA)
Test system: human APOE RNA
Experiment: Dose-dependent inhibition of human APOE RNA in HepG2 cells, electroporation, 50,000 cells per well, RT-PCR normalized to GAPDH (Example 4, Tables 8-10)
Type: cell-based
Conditions: HepG2, electroporation
Procedure: Modified oligonucleotides selected from the examples above were tested at various doses in HepG2 cells. The modified oligonucleotides were tested in a series of experiments that had the same culture conditions. Each experiment is identified in separate tables below.
HepG2 cells plated at a density of 50,000 cells per well were treated by electroporation with various concentrations of modified oligonucleotide as specified in the tables below. […] APOE RNA levels were measured using the human primer probe set RTS3073 (forward sequence […], designated herein as SEQ ID NO: 7; reverse sequence CCATCAGCGCCCTCAGTT, designated herein as SEQ ID NO: 8; probe sequence […], designated herein as SEQ ID NO:9). APOE RNA levels were normalized to human GAPDH. […] Results are presented as percent APOE RNA, relative to the amount of APOE RNA in untreated control cells (UTC).

Row | Substance | APOE RNA (% UTC) (5 nM, 24-hour treatment) | APOE RNA (% UTC) (13 nM, 24-hour treatment) | APOE RNA (% UTC) (33 nM, 24-hour treatment) | APOE RNA (% UTC) (82 nM, 24-hour treatment) | APOE RNA (% UTC) (205 nM, 24-hour treatment) | APOE RNA (% UTC) (512 nM, 24-hour treatment) | APOE RNA (% UTC) (1,280 nM, 24-hour treatment) | APOE RNA (% UTC) (3,200 nM, 24-hour treatment) | APOE RNA (% UTC) (8,000 nM, 24-hour treatment) | APOE RNA (% UTC) (20,000 nM, 24-hour treatment) | IC50 (24-hour treatment) | APOE RNA (% UTC) (5 nM, 16-hour treatment) | APOE RNA (% UTC) (13 nM, 16-hour treatment) | APOE RNA (% UTC) (33 nM, 16-hour treatment) | APOE RNA (% UTC) (82 nM, 16-hour treatment) | APOE RNA (% UTC) (205 nM, 16-hour treatment) | APOE RNA (% UTC) (512 nM, 16-hour treatment) | APOE RNA (% UTC) (1,280 nM, 16-hour treatment) | APOE RNA (% UTC) (3,200 nM, 16-hour treatment) | APOE RNA (% UTC) (8,000 nM, 16-hour treatment) | also measured
1 | 1747052 (k[5mC]*dT[ms]kT*kG*dG[ms]kT*dG[ms]dA[ms]dA[ms]dT*d[5mC]*dT*dT*dT*dA[ms]dT*kT*dA[ms]dA[ms]kA; antisense) [Compound 1747052] | 150 % UTC | 113 % UTC | 148 % UTC | 127 % UTC | 108 % UTC | 79 % UTC | 53 % UTC | 46 % UTC | 31 % UTC | 19 % UTC | 2710 nM | – | – | – | – | – | – | – | – | – | –
2 | 1757566 (eA*e[5mC]eTkTkG*dG*dT*dG*dA*dA*dT*d[5mC]*dT*dT*dT*eAeTeT*eA*eA; antisense) [Compound 1757566] | – | – | – | – | – | – | – | – | – | – | – | 82 % UTC | 87 % UTC | 85 % UTC | 73 % UTC | 77 % UTC | 49 % UTC | 31 % UTC | 22 % UTC | 17 % UTC | APOE RNA (% UTC) (20,000 nM, 16-hour treatment): 21 % UTC; IC50 (16-hour treatment): 550 nM
3 | 1746805 (k[5mC]*kT*dT[ms]kG*dG[ms]dT[ms]dG[ms]dA[ms]dA[ms]dT*d[5mC]*dT*dT*dT*dA[ms]dT*dT[ms]kA*kA*kA; antisense) [Compound 1746805] | 95 % UTC | 109 % UTC | 93 % UTC | 94 % UTC | 65 % UTC | 75 % UTC | 41 % UTC | 39 % UTC | 29 % UTC | 11 % UTC | 1360 nM | – | – | – | – | – | – | – | – | – | –
4 | 1746785 (k[5mC]*kT*dT[ms]kG*dG[ms]dT[ms]dG[ms]dA[ms]dA[ms]dT*d[5mC]*dT*dT*dT*dA[ms]dT*kT*kA*dA[ms]kA; antisense) [Compound 1746785] | 90 % UTC | 93 % UTC | 97 % UTC | 84 % UTC | 83 % UTC | 53 % UTC | 48 % UTC | 29 % UTC | 8 % UTC | 35 % UTC | 1040 nM | – | – | – | – | – | – | – | – | – | –
5 | 1766537 (eT*eTeGeGeT*dG[ms]dA[ms]dA[ms]dT*d[5mC]*dT*dT*dT[ms]dA*dT*kTkAeA*eA*e[5mC]; antisense) [Compound 1766537] | – | – | – | – | – | – | – | – | – | – | – | 95 % UTC | 111 % UTC | 108 % UTC | 89 % UTC | 90 % UTC | 85 % UTC | 62 % UTC | 36 % UTC | 21 % UTC | APOE RNA (% UTC) (20,000 nM, 16-hour treatment): 5 % UTC; IC50 (16-hour treatment): 2010 nM
6 | 1757557: mixed MOE/cEt gapmer TTGGTGAATCTTTATTAA, sugar eeeeeddddddddeekke, linkages soossssssssssooss (eT*eTeGeG*eT*dG*dA*dA*dT*d[5mC]*dT*dT*dT*eAeTkT*kA*eA) [compound 1757557] | – | – | – | – | – | – | – | – | – | – | – | 79 % UTC | 88 % UTC | 89 % UTC | 88 % UTC | 86 % UTC | 89 % UTC | 94 % UTC | 59 % UTC | 36 % UTC | APOE RNA (% UTC) (20,000 nM, 16-hour treatment): 7 % UTC; IC50 (16-hour treatment): 4680 nM
7 | 1747053 (k[5mC]*dT[ms]dT[ms]kG*kG*kT*dG[ms]dA[ms]dA[ms]dT*d[5mC]*dT*dT*dT*dA[ms]dT*kT*dA[ms]dA[ms]kA; antisense) [Compound 1747053] | 115 % UTC | 131 % UTC | 124 % UTC | 107 % UTC | 70 % UTC | 49 % UTC | 57 % UTC | 39 % UTC | 38 % UTC | 32 % UTC | 2170 nM | – | – | – | – | – | – | – | – | – | –
8 | 1747051 (k[5mC]*kT*dT[ms]kG*dG[ms]kT*dG[ms]dA[ms]dA[ms]dT*d[5mC]*dT*dT*dT*dA[ms]dT*kT*dA[ms]dA[ms]kA; antisense) [Compound 1747051] | 111 % UTC | 117 % UTC | 152 % UTC | 128 % UTC | 111 % UTC | 67 % UTC | 76 % UTC | 42 % UTC | 31 % UTC | 9 % UTC | 2900 nM | – | – | – | – | – | – | – | – | – | –
9 | 1757569 (eA*e[5mC]eTkTkG*dG*dT*dG*dA*dA*dT*d[5mC]*dT*dT*dT*kAeTeT*eA*eA; antisense) [Compound 1757569] | – | – | – | – | – | – | – | – | – | – | – | 101 % UTC | 91 % UTC | 82 % UTC | 81 % UTC | 60 % UTC | 38 % UTC | 24 % UTC | 24 % UTC | 18 % UTC | APOE RNA (% UTC) (20,000 nM, 16-hour treatment): 18 % UTC; IC50 (16-hour treatment): 390 nM
10 | 1746791 (k[5mC]*dT[ms]dT[ms]kG*kG*dT[ms]dG[ms]dA[ms]dA[ms]dT*d[5mC]*dT*dT*dT*dA[ms]dT*kT*kA*dA[ms]kA; antisense) [Compound 1746791] | 88 % UTC | 104 % UTC | 93 % UTC | 88 % UTC | 80 % UTC | 62 % UTC | 35 % UTC | 21 % UTC | 16 % UTC | 21 % UTC | 850 nM | – | – | – | – | – | – | – | – | – | –
11 | 1746813 (k[5mC]*dT[ms]dT[ms]kG*dG[ms]kT*dG[ms]dA[ms]dA[ms]dT*d[5mC]*dT*dT*dT*dA[ms]dT*dT[ms]kA*kA*kA; antisense) [Compound 1746813] | 137 % UTC | 117 % UTC | 119 % UTC | 101 % UTC | 100 % UTC | 83 % UTC | 57 % UTC | 41 % UTC | 19 % UTC | 21 % UTC | 2250 nM | – | – | – | – | – | – | – | – | – | –

Source: patent US20250353873A1, “COMPOUNDS AND METHODS FOR MODULATING APOE EXPRESSION” (Ionis Pharmaceuticals, Inc., priority 2024, published 2025)
